Series [1] addresses T1, TXA2 /PGH2 receptor of the platelet membranes (Homo sapiens, UniProt P21731).
T1 construct: TXA2 /PGH2 receptor, to platelet membranes whose PC's or PE's are enriched either in 18:2n-6 or in DHA; from tissue; host or cells: platelet membranes (phospholipids exchanged with maize or endogenous platelet transfer protein)
T1 sequence (P21731 1-343): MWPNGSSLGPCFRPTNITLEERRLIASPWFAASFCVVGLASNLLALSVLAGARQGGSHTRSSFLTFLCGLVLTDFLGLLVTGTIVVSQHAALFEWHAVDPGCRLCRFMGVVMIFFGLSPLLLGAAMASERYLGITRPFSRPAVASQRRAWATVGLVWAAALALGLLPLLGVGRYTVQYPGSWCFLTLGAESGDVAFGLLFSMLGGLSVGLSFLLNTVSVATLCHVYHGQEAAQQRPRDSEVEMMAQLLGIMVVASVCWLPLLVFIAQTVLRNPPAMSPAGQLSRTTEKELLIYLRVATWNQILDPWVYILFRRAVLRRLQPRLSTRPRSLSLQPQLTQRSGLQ
The series can be described thus: Specific binding of tritiated SQ29,548 to the TXA2/PGH2 receptor of platelet membranes whose PC's or PE's are enriched in 18:2n-6 or DHA. Conditions: for effect on the TXA2 /PGH2 receptor (dissociation constant of SQ29.548): platelet membranes enriched, in words. As to the method:
The diacyl-glycerophosphocholines of the platelet membranes were replaced either with 1-palmitoyl-2-docosa-hexaenoyl-glycerophosphocholine (bars with vertical stripes, "22:6n-3"), or with 1-palmitoyl-2-linoloyl-glycerophosphocholine (bars with horizontal stripes, "18:2n-6"), using the endogenous transfer protein of the platelets which is specific for the phosphatidylinositols and phosphatidylcholines. The control platelet membranes (black bars, "control") are obtained by incubation without addition of phospholipids. The data for the graph represent the mean±S.D. of three independent tests.
The diacyl-glycerophosphoethanolamines of the platelet membranes were replaced either with 1-palmitoyl-2-docosahexaenoyl-glycerophosphoethanolamine (bars with vertical stripes, "22:6n-3"), or with 1-palmitoyl-2-linoloyl-glycerophosphoethanolamine (bars with horizontal stripes "18:2n-6"), using the lipid transfer protein purified from maize. The control platelet membranes (black bars, "control") are obtained by incubation without addition of phospholipids. The data for the graph represent the mean±S.D. of three independent tests.
Preparations of esterified DHA into various classes of phospholipids were carried out using phospholipid transfer proteins in order to enrich, in a specific manner, the phosphatidylcholines (PC) and the phosphatidylethanolamines (PE) of the platelet membranes in linoleic acid (18:2n-6) and in DHA (49). In particular, the transfer protein (PT), which is specific for the PC's and purified from bovine liver, was used to modify the composition of molecular species of the PC's of erythrocytes (49).
In the procedure used in the present example, the endogenous quantity of platelet phospholipids is not altered by the transfer carried out by means of the maize or platelet PT; nevertheless, the phospholipids were enriched in 18:2n-6 or in DHA.
The influence of the fatty acids on the TXA2 /PGH2 receptor was established by measuring the specific binding of tritiated SQ29,548, a competitive antagonist of the TXA2 /PGH2 receptor, to platelet membranes whose PC's or PE's are enriched either in 18:2n-6 or in DHA.

In another series the test system is kidney. The series can be described thus: Capture by the kidney, in rats, of lyso-PCDHA and non-esterified DHA. Format: in vivo. Conditions: 20-day-old rat, intravenous; lyso-PCDHA vs non-esterified DHA. From the text: FIG. 3 represents the variation of the radio-activity recovered in the total lipids: A from the brain, B from the kidney, C from the heart and D from the liver, after injecting tritiated DHA in free form (black circle) or in the form of 2-DHA-1-lyso-PC (black triangle).
(§1) The animal studied is a 20-day-old rat in which the cerebral lipid metabolism is at its peak.
(§2) The lyso-PC's are labelled on the fatty acid and the choline, attached to albumin and administered intravenously (50). […] It therefore appears that the lyso-PCDHA's attached to albumin constitute a particularly preferred form of supply of DHA to the developing brain.

The subject of the next series is brain. The series is described as follows: Distribution of the radioactivity between the lipid classes of the brain after intravenous injection of lyso-PCDHA or non-esterified DHA. Format: in vivo, rat. Conditions: injection of non-esterified DHA.
Text: as §1, §2

Where [2] appears, read: individual test, platelet membranes, PC's enriched.
Setting [3] is: mean of three tests, PC's enriched.
[4] abbreviates: individual test, platelet membranes, PE's enriched.
Setting [5] is: individual test, platelet membranes, PE's enriched, read-out: Kd of SQ 29.548.
Where [6] appears, read: mean of three tests, PE's enriched.
[7] abbreviates: mean of three tests, PE's enriched, read-out: Kd of SQ 29.548.

Several values for one entry are separate records, joined by “and”; a condition that tells them apart may be missing. Equal values may be shown once. Read-outs that look alike come from different tables or passages of the source.

As for `CCCCC/C=C\C/C=C\CCCCCCCC(=O)OC(COC(=O)CCCCCCCCCCCCCCC)COP(=O)([O-])OCC[N+](C)(C)C` (stereo not shown) [PC 18:2n-6, 1-palmitoyl-2-linoloyl-glycerophosphocholine], the Kd in series [1] (Kd of SQ 29.548, individual test, platelet membranes, PC's enriched) was 4.64 nM and 3.16 nM and 4.05 nM; in series [1] (Kd of SQ 29.548, mean of three tests, PC's enriched, (a) p < 0.05 compared with the control and with PC 18:2n6 for PC 22:6n-3), 3.95 ± 0.75 nM. Further, the “Bmax of SQ 29.548” value is 1.83 pmol/mg prot. and 1.91 pmol/mg prot. and 2.41 pmol/mg prot in series [1] (setting [2]); 2.05 ± 0.31 pmol/mg prot in series [1] (setting [3]). Also, the “Hill Coefficient” value in series [1] (setting [2]) is 1.00 and 0.94 and 0.90; in series [1] (setting [3]), 0.95 ± 0.05. Moreover, the “effect on the TXA2 /PGH2 receptor (dissociation constant of SQ29.548)” value (from here on “effect on the TXA2 /PGH2 receptor”) in series [1] is listed as “no effect on the receptor”.

Consider `CC/C=C\C/C=C\C/C=C\C/C=C\C/C=C\C/C=C\CCC(=O)OC(COC(=O)CCCCCCCCCCCCCCC)COP(=O)([O-])OCC[N+](C)(C)C` (stereo not shown) [PC 22:6n-3, 1-palmitoyl-2-docosahexaenoyl-glycerophosphocholine], for which the “Bmax of SQ 29.548” value was 2.94 pmol/mg prot. and 2.09 pmol/mg prot. and 2.40 pmol/mg prot in series [1] (setting [2]); 2.48 ± 0.43 pmol/mg prot in series [1] (setting [3]). Also, the “Hill Coefficient” value in series [1] (setting [2]) is 0.91 and 1.00 and 0.94; in series [1] (setting [3]) it was 0.95 ± 0.05. Also, the Kd in series [1] (individual test, platelet membranes, PC's enriched, read-out: Kd of SQ 29.548) was 5.69 nM and 8.56 nM and 7.05 nM; in series [1] (mean of three tests, PC's enriched, (a) p < 0.05 compared with the control and with PC 18:2n6 for PC 22:6n-3, read-out: Kd of SQ 29.548), 7.1 ± 1.44 nM. In series [1], the “effect on the TXA2 /PGH2 receptor” value is given as “significantly increasing the dissociation constant of SQ29.548”.

Consider `CCCCC/C=C\C/C=C\CCCCCCCC(=O)OC(COC(=O)CCCCCCCCCCCCCCC)COP(=O)(O)OCCN` (stereo not shown) [PE 18:2n-6, 1-palmitoyl-2-linoloyl-glycerophosphoethanolamine], for which the “Bmax of SQ 29.548” value in series [1] (setting [4]) was 1.89 pmol/mg prot. and 2.26 pmol/mg prot. and 2.07 pmol/mg prot; in series [1] (setting [6]) it was 2.07 ± 0.19 pmol/mg prot. Moreover, the “Hill Coefficient” value in series [1] (setting [4]) was 0.94 and 1.00 and 1.05; in series [1] (setting [6]), 1.00 ± 0.06. Besides, the Kd was 3.11 nM and 4.31 nM and 4.92 nM in series [1] (setting [5]); 4.11 ± 0.92 nM in series [1] (setting [7]). In addition, in series [1], the “effect on the TXA2 /PGH2 receptor” value was “no effect on the receptor”.

`CC/C=C\C/C=C\C/C=C\C/C=C\C/C=C\C/C=C\CCC(=O)OC(COC(=O)CCCCCCCCCCCCCCC)COP(=O)(O)OCCN` (stereo not shown) [PE 22:6n-3, 1-palmitoyl-2-docosahexaenoyl-glycerophosphoethanolamine]: the “Bmax of SQ 29.548” value in series [1] (setting [4]) is 1.67 pmol/mg prot. and 1.99 pmol/mg prot. and 1.91 pmol/mg prot; in series [1] (setting [6]) it was 1.86 ± 0.17 pmol/mg prot. For the same compound, the “Hill Coefficient” value is 0.95 and 1.02 in series [1] (setting [4]); 1.00 ± 0.04 in series [1] (setting [6]). Besides, the Kd is 2.92 nM and 4.61 nM and 4.63 nM in series [1] (setting [5]); 4.05 ± 0.98 nM in series [1] (setting [7]). Also, the “effect on the TXA2 /PGH2 receptor” value in series [1] was “no effect on the receptor”.

In the case of `CC/C=C\C/C=C\C/C=C\C/C=C\C/C=C\C/C=C\CCC(=O)O` [non-esterified DHA, docosahexaenoic acid, reference compound], the “capture by the kidney” value with kidney was “captures the two forms of supply in essentially the same manner”. In addition, the “radioactivity in LN + AG of the brain” value in the series with brain (2.5 min) is 36.7 % of the radioactivity of the total lipids; in the series with brain (5 min), 19.0 % of the radioactivity of the total lipids; in the series on brain (7.5 min), 30.0 % of the radioactivity of the total lipids; in the series with brain (8 min), 31.6 % of the radioactivity of the total lipids; in the series on brain (15 min), 20.8 % of the radioactivity of the total lipids; in the series on brain (30 min), 20.4 % of the radioactivity of the total lipids. In addition, the “radioactivity in LN + AG of the brain” value in the series on brain (60 min) is listed as 12.5 % of the radioactivity of the total lipids. The “radioactivity in PC of the brain” value with brain (2.5 min) was 18.8 % of the radioactivity of the total lipids; with brain (5 min), 23.2 % of the radioactivity of the total lipids; in the series on brain (7.5 min), 21.1 % of the radioactivity of the total lipids; with brain (8 min) it was 19.6 % of the radioactivity of the total lipids; with brain (15 min), 25.7 % of the radioactivity of the total lipids; in the series on brain (30 min) it was 24.8 % of the radioactivity of the total lipids. Further, the “radioactivity in PC of the brain” value with brain (60 min) is recorded as 24.3 % of the radioactivity of the total lipids. Further, the “radioactivity in PE of the brain” value is reported as 37.5 % of the radioactivity of the total lipids in the series with brain (2.5 min); 48.1 % of the radioactivity of the total lipids with brain (5 min); 44.4 % of the radioactivity of the total lipids in the series with brain (7.5 min); 40.7 % of the radioactivity of the total lipids with brain (8 min); 49.1 % of the radioactivity of the total lipids in the series with brain (15 min); 48.4 % of the radioactivity of the total lipids in the series on brain (30 min). The “radioactivity in PE of the brain” value with brain (60 min) is 54.1 % of the radioactivity of the total lipids. In addition, the “radioactivity in PI of the brain” value in the series on brain (2.5 min) is given as 2.7 % of the radioactivity of the total lipids; in the series on brain (5 min), 5.1 % of the radioactivity of the total lipids; in the series with brain (7.5 min), 2.6 % of the radioactivity of the total lipids; in the series with brain (8 min), 3.8 % of the radioactivity of the total lipids; in the series on brain (15 min), 3 % of the radioactivity of the total lipids; in the series on brain (30 min), 3.4 % of the radioactivity of the total lipids. Further, the “radioactivity in PI of the brain” value in the series on brain (60 min) is given as 2.8 % of the radioactivity of the total lipids. For the same compound, the “radioactivity in PS of the brain” value in the series with brain (2.5 min) was 4.0 % of the radioactivity of the total lipids; in the series on brain (5 min), 4.6 % of the radioactivity of the total lipids; with brain (7.5 min), 1.8 % of the radioactivity of the total lipids; in the series on brain (8 min), 4.3 % of the radioactivity of the total lipids; with brain (15 min), 2.9 % of the radioactivity of the total lipids; in the series on brain (30 min), 2.9 % of the radioactivity of the total lipids. For the same compound, in the series on brain (60 min), the “radioactivity in PS of the brain” value is 6.3 % of the radioactivity of the total lipids.

By Kd is commonly meant the free concentration of one partner at which half of the binding sites on the other are occupied at equilibrium, for simple one-to-one binding.

These data come from US5654290A, “Polyunsaturated fatty acid based drugs” (Institut National de la Sante et de la Recherche Medicale, priority 1992, dated 1997).
